The source of these data is patent publication US20140296346A1, “Crystalline Forms of (-)-(1R,2R)-3-(3-dimethylamino-1-ethyl-2-methylpropyl)-phenol hydrochloride” (priority 2004, published 2014).

Where a name gives a salt, the structure may show the parent alone.

Data set [1] in a line: Stability of the crystalline form under ambient conditions.
The nature of data set [2]: Variable temperature X-ray powder diffraction experiment. It counts as physicochemical. Conditions: variable temperature XRPD. The method, then: Variable Temperature X-Ray Powder Diffraction Experiment
A variable temperature X-ray powder diffraction experiment was run thereby producing Form B from Form A. Form A converted to Form B from 40-50° C. during the experiment.

On to `CC[C@@H](c1cccc(O)c1)[C@@H](C)CN(C)C` [Form A, (-)-(1R,2R)-3-(3-dimethylamino-1-ethyl-2-methylpropyl)-phenol hydrochloride], for which the “Stability at ambient conditions” value in data set [1] is reported as “very stable”. For the same molecule, in data set [1] (relative to Form B), the “Stability under ambient conditions compared with Form B” value was “more stable”. The “Temperature at which Form A converted to Form B” value in data set [2] (on heating) is 40-50 °C.

`CC[C@@H](c1cccc(O)c1)[C@@H](C)CN(C)C.Cl` [Form B, (-)-(1R,2R)-3-(3-dimethylamino-1-ethyl-2-methylpropyl)-phenol hydrochloride]: in data set [2] (at lower temperature), the “Reversibility of the polymorphic conversion” value was “changing over into Form A at lower temperature”.
